Results taken from ChEMBL document CHEMBL1142847, “New orally active spiro 1,2,4-trioxanes with high antimalarial potency” (2005).

Columns and labels:
Type in all cases: functional
[1] = Number of Swiss mice (Mus musculus) alive in a batch of 5 infected with multidrug-resistant Plasmodium yoelii, on day 28 after intramuscular administration of 96 mg/kg/day dose
Rattus norvegicus [2] = test: Number of Swiss mice (Mus musculus) alive in a batch of 5 infected with multidrug-resistant Plasmodium yoelii, on day 28 after peroral administration of 96 mg/kg/day dose; settings: route oral
Rattus norvegicus [3] = test: Number of Swiss mice (Mus musculus) alive in a batch of 5 infected with multidrug-resistant Plasmodium yoelii, on day 28 after peroral administration of 48 mg/kg/day dose; settings: route oral
Rattus norvegicus [4] = test: Number of Swiss mice (Mus musculus) alive in a batch of 5 infected with multidrug-resistant Plasmodium yoelii, on day 28 after oral administration of 24 mg/kg/day dose

| SMILES | Activity [1] | Activity (Rattus norvegicus [2]) | Activity (Rattus norvegicus [3]) | Activity (Rattus norvegicus [4]) |
| --- | --- | --- | --- | --- |
| C=C(c1ccccc1)C1COC2(CCC(O)CC2)OO1 (stereo not drawn) | 0 | 0 |  |  |
| C=C(c1ccc(-c2ccccc2)cc1)C1COC2(CCC(OC(=O)CCC(=O)O)CC2)OO1 (stereo not drawn) | 0 | 0 |  |  |
| C=C(c1ccc(-c2ccccc2)cc1)C1COC2(CCC(O)CC2)OO1 (stereo not drawn) | 2 | 0 |  |  |
| C=C(c1ccccc1)C1COC2(CCC(OC(=O)CCC(=O)O)CC2)OO1 (stereo not drawn) | 0 | 0 |  |  |
| C=C(c1ccccc1)C1COC2(CCC(C)(O)CC2)OO1 (stereo not drawn) | 2 | 0 |  |  |
| C=C(c1ccccc1)C1COC2(CCC(=C(C)C(=O)OCC)CC2)OO1 (stereo not drawn) | 0 | 0 |  |  |
| C=C(c1ccc(-c2ccccc2)cc1)C1COC2(CCC(=C(C)C(=O)OCC)CC2)OO1 (stereo not drawn) | 0 | 2 | 0 |  |
| C=C(c1ccccc1)C1COC2(CCC(O)(c3ccccc3)CC2)OO1 (stereo not drawn) | 0 | 0 |  |  |
| C=C(c1ccccc1)C1COC2(CCC(=CC(=O)OCC)CC2)OO1 (stereo not drawn) | 2 | 5 | 5 | 0 |
| C=C(c1ccc(-c2ccccc2)cc1)C1COC2(CCC(=CC(=O)OCC)CC2)OO1 (stereo not drawn) | 0 | 5 | 0 |  |
| C=C(c1ccccc1)C1COC2(CCC(O)(CC(=O)OCC)CC2)OO1 (stereo in doubt; form 1) | 0 | 0 |  |  |
| C=C(c1ccc(-c2ccccc2)cc1)C1COC2(CCC(O)(CC(=O)OCC)CC2)OO1 (stereo in doubt; form 1) | 0 | 0 |  |  |
